In patent US20220257597A1, “Methods of Administering Elagolix” (AbbVie Inc., priority 2021, published 2022):
One block for each molecule: values may come before it.

Experiments:
[1] = Drug interaction studies: change in pharmacokinetics of co-administered drug in the presence of elagolix; format: in vivo, human
Experimental: Drug interaction studies were performed with elagolix and other drugs likely to be co-administered and with drugs commonly used as probes for pharmacokinetic interactions. Tables 8 and 9 summarize the pharmacokinetic effects when elagolix was co-administered with these drugs.

[2] = Drug-drug interaction study: effect of multiple doses of elagolix sodium on pharmacokinetics of bupropion (CYP2B6 substrate) and OH-bupropion
Experimental: Subjects: Twenty four (24) adult premenopausal women in generally good health participated in this study.
Elagolix 300 mg BID (as 300 mg immediate release tablets) was administered in the morning and evening on days 1 through 14 in period 2. […] No food was consumed for 2 hours prior to the evening doses of elagolix continuing through 2 hours after. The doses of elagolix were separated by approximately 12 hours.
Individual PK parameters (peak concentration [Cmax] and area under the concentration-time curve [AUC]) were estimated using noncompartmental methods.
Central value ratios (90% confidence intervals) for Cmax, AUC, and metabolite to parent ratios (MPRs) (day 11, period 2 vs. day 1, period 1) were calculated to assess the DDIs. Safety was evaluated through assessment of adverse events, vital signs, electrocardiogram, and clinical laboratory tests.
Adverse events (AEs) were monitored throughout the DDI study. Additional safety evaluations included monitoring of physical examinations, vital signs, electrocardiogram variables, and clinical laboratory values were assessed

[3] = Drug-drug interaction study: effect of multiple doses of elagolix sodium on pharmacokinetics of omeprazole (CYP2C19 substrate) and its metabolites; settings: for AUCinf / AUCt / Cmax: geometric mean; for t1/2: harmonic mean; for RAUCinf = metabolite-to-omeprazole AUCinf ratio / RAUCt = metabolite-to-omeprazole AUCt ratio / Tmax: median
Experimental: Subjects: Twenty adult premenopausal female subjects were enrolled in the study.
Beginning on Day 3, subjects received elagolix 300 mg BID under fasting conditions every day until Day 10. […] Doses of elagolix were separated by approximately 12 hours.
Testing was performed for CYP2C19 variants including the *2 (r54244285), *3 (r54986893), *4 (r528399504), *8 (r541291556), *10 (r56413438) and *12 (r555640102) alleles.
Safety was evaluated during confinement and at each study visit through adverse event monitoring, vital signs measurements, physical examinations, and routine laboratory tests.

[4] = ethinyl estradiol 35 mcg and triphasic norgestimate 0.18/0.215/0.25 mg once daily, elagolix 150 mg once daily, N 21
[5] = Study Day 11, omeprazole 40 mg + elagolix 300 mg BID
[6] = Study Day 11: elagolix 300 mg BID + omeprazole 40 mg
[7] = norethindrone 0.35 mg once daily x 112 days, elagolix 150 mg once daily x 56 days, N 32

Ratio (90% CI) AUC, co-administration with elagolix vs medication alone [1, 4]: 0.85
Ratio (90% CI) Cmax, co-administration with elagolix vs medication alone [1, 4]: 0.87
SMILES: C#C[C@]1(O)CC[C@H]2[C@@H]3CCC4=CC(=NO)CC[C@@H]4[C@H]3CC[C@@]21CC (mixture of isomers) [Norelgestromin]

SMILES: CC(NC(C)(C)C)C(=O)c1cccc(Cl)c1.Cl (racemic) [bupropion, (±)-1-(3-chlorophenyl)-2-[(1,1-dimethylethyl)amino]-1-propanone hydrochloride, reference compound]
Cmax upon co-administration with elagolix, in words ([2]; co-administration with elagolix): increased
increase in Cmax upon co-administration with elagolix ([2]; elagolix 300 mg BID): 25%
AUC(0-inf) ([2]; female, human, in vivo, 150 mg): 1130 ng·h/mL
AUC(0-t) ([2]; female, human, in vivo, 150 mg): 1090 ng·h/mL
Cmax ([2]; female, human, in vivo, 150 mg): 89.5 ng/mL
Tmax ([2]; female, human, in vivo, 150 mg): 4 h
changes in exposures when co-administered with elagolix, in words ([1]; elagolix 300 mg twice daily): No clinically significant changes

M:P AUCinf Ratio, Relative Bioavailability Point Estimate ([3]; Day 11 vs. Day 1): 0.432
M:P AUCt Ratio, Relative Bioavailability Point Estimate ([3]; Day 11 vs. Day 1): 0.412
AUCinf ([3]; Study Day 1, omeprazole 40 mg): 883 ng·h/mL
AUCt ([3]; Study Day 1, omeprazole 40 mg): 857 ng·h/mL
Cmax ([3]; Study Day 1, omeprazole 40 mg): 195 ng/mL
t1/2 ([3]; Study Day 1, omeprazole 40 mg): 1.88 h
RAUCinf = metabolite-to-omeprazole AUCinf ratio ([3]; Study Day 1, omeprazole 40 mg): 0.61
RAUCt = metabolite-to-omeprazole AUCt ratio ([3]; Study Day 1, omeprazole 40 mg): 0.65
Tmax ([3]; Study Day 1, omeprazole 40 mg): 2.0 h
M:P AUCinf Ratio, Central Value Reference ([3]; Study Day 1: omeprazole 40 mg): 0.458
M:P AUCt Ratio, Central Value Reference ([3]; Study Day 1: omeprazole 40 mg): 0.471
AUCinf [3, 5]: 664 ng·h/mL
AUCt [3, 5]: 643 ng·h/mL
Cmax [3, 5]: 134 ng/mL
t1/2 [3, 5]: 1.97 h
RAUCinf = metabolite-to-omeprazole AUCinf ratio [3, 5]: 0.20
RAUCt = metabolite-to-omeprazole AUCt ratio [3, 5]: 0.20
Tmax [3, 5]: 3.0 h
M:P AUCinf Ratio, Central Value Test [3, 6]: 0.198
M:P AUCt Ratio, Central Value Test [3, 6]: 0.194
decrease in AUCinf in all genotype subgroups ([3]; all CYP2C19 genotype subgroups, elagolix co-administration): 20-30%
decrease in AUCinf ([3]; elagolix 300 mg BID dosing): ~25%
decrease in Cmax ([3]; elagolix 300 mg BID dosing): approximately 30%
decrease in M:P AUCinf ratio ([3]; elagolix 300 mg BID dosing): 60%
SMILES: COc1ccc2nc([S+]([O-])Cc3ncc(CO)c(OC)c3C)[nH]c2c1 (centres unmarked) [5-hydroxyomeprazole]

Ratio (90% CI) AUC, co-administration with elagolix vs medication alone [1, 7]: 0.88
Ratio (90% CI) Cmax, co-administration with elagolix vs medication alone [1, 7]: 0.95
SMILES: C#C[C@]1(O)CC[C@H]2[C@@H]3CCC4=CC(=O)CC[C@@H]4[C@H]3CC[C@@]21C [Norethindrone]
